# Assays:
# [1] = Forearm controlled application test (FCAT), skin hydration by Corneometer; assay type: in vivo, human
# Protocol: (§1) Topical compositions were tested on skin samples for their ability to improve or maintain skin hydration and limit transepidermal water loss (TEWL). Measurement of the TEWL, expressed in grams per square meter and per hour, is used for studying the water barrier function of the human skin. The more perfect the skin protective coat, the higher the water content and the lower the TEWL. For each of the tests, a negative control was used, which included treatment with 8% SLS. An untreated skin sample was also tested for comparison. The tests were performed using the forearm controlled application test (FCAT) methodology. The various samples were applied to test sites on a forearm over the course of several days. On each day, up to six applications were made and the change in TEWL and hydration levels were recorded. The hydration levels were measured using a Corneometer® based on capacitance measurement of a dielectric medium. The Corneometer® measures the change in the dielectric constant due to skin surface hydration changing the capacitance of a precision capacitor. The measurement can detect even slight changes in the hydration level.
# The change in TEWL and hydration levels represent the change observed for that particular sample compared to a baseline (the transepidermal water content or hydration level prior to treatment). […]
# [2] = Forearm controlled application test (FCAT), transepidermal water loss (TEWL); assay type: in vivo, human
# Protocol: as §1, with “level. The change in TEWL and hydration levels represent the change observed for that particular sample compared to a baseline (the transepidermal water content or hydration level prior to treatment). […]” for “level.”
compound,measurement,setting,value
"CCCCCCCCCCCCOS(=O)(=O)[O-].[Na+] [negative control, SLS]",hydration levels,"[1]; Example 1, FIG. 5, change compared to baseline",lowest hydration levels
same,change in hydration levels,"[1]; Example 2, FIG. 8, wet and dry application, 3 and 5 days of treatment",significant reduction in hydration level
same,TEWL,"[2]; Example 1, FIG. 6, change compared to baseline",highest TEWL
same,change in TEWL,"[2]; Example 2, FIG. 7, wet and dry application, 3 and 5 days of treatment",significant TEWL
